This note sets out measurements from patent US20190343828A1, “CAMPTOTHECIN PEPTIDE CONJUGATES” (SEATTLE GENETICS, INC., priority 2018, published 2019).

The test system of test [1] is Burkitt's lymphoma cells (Ramos). Briefly: In vitro cytotoxicity, CellTiter-Glo 96 h, Ramos. To be noted: Homo sapiens, read-out: Cytotoxic potency as free drug, IC50, Ramos.
Test [2] has as its system multiple drug resistant acute promyelocytic leukemia cells (HL-60/RV). Briefly: In vitro cytotoxicity, CellTiter-Glo 96 h, HL60/RV. To be noted: Homo sapiens, HL-60, read-out: Cytotoxic potency (IC50 class), HL60/RV.
The test system of test [3] is B-lymphocyte cancer cells (SU-DHL-4). Briefly: In vitro cytotoxicity, CellTiter-Glo 96 h, SU-DHL-4. As to conditions: Homo sapiens, SU-DHL-4, read-out: Cytotoxic potency as free drug, IC50, SU-DHL-4. (Cellular ATP, detected with luciferase, serves as a proxy for viable cell number.)
Procedure: (§1) In vitro potency was assessed on multiple cancer cell lines. All cell lines were authenticated by STR profiling at IDEXX Bioresearch and cultured for no more than 2 months after resuscitation. Cells cultured in log-phase growth were seeded for 24 hours in 96-well plates containing 150 μl RPMI 1640 supplemented with 20% FBS. Serial dilutions of antibody-drug conjugates in cell culture media were prepared at 4× working concentrations, and 50 μl of each dilution was added to the 96-well plates. Following addition of test articles, cells were incubated with test articles for 4 days at 37° C. After 96 hours, growth inhibition was assessed by CellTiter-Glo® (Promega, Madison, Wis.) and luminescence was measured on a plate reader.
(§2) Cell viability was determined by CellTiter-Glo staining after 96 h exposure to ADC. […] Ag1 is an antibody targeting a ubiquitous and readily internalizable antigen on cancer cells, Ag2 is cAC10 antibody targeting CD30(+) cancer cells, Ag3 is h1F6 antibody targeting CD70(+) cancer cells, Ag4 is hMEM102 antibody targeting CD48(+) cancer cells, Ag5 is h20F3 antibody targeting NTB-A expressing cancer cells, and h00 is a non-binding control antibody.
In test [4] the test system is pancreatic cancer cells (BxPC3). Briefly: In vitro cytotoxicity, CellTiter-Glo 96 h, BxPC3. To be noted: Homo sapiens, BXPC-3, read-out: Cytotoxic potency (IC50 class), BxPC3.
Procedure: as §1
(§3) Cell viability was determined by CellTiter-Glo staining after 96 h exposure to ADC.
The test system of test [5] is Hodgkin's lymphoma cells (L540cy). Briefly: In vitro cytotoxicity, CellTiter-Glo 96 h, L540cy. As to conditions: read-out: Cytotoxic potency (IC50 class), L540cy.
Procedure: as §1, §3
In test [6] the test system is multiple myeloma cells (MM.1R). As to the kind of experiment: In vitro cytotoxicity, CellTiter-Glo 96 h, MM.1R. To be noted: read-out: Cytotoxic potency (IC50 class), MM.1R.
In test [7] the test system is acute myeloid leukemia cells (MOLM13). Briefly: In vitro cytotoxicity, CellTiter-Glo 96 h, MOLM13. To be noted: Homo sapiens, MOLM-13, read-out: Cytotoxic potency as free drug, IC50, MOLM13.
Procedure: as §1, §3
Test [8] has as its system acute promyelocytic leukemia cells (HL-60). Briefly: In vitro cytotoxicity, CellTiter-Glo 96 h, HL-60. To be noted: Homo sapiens, HL-60, read-out: Cytotoxic potency (IC50 class), HL-60.
Procedure: as §1, §2
Test [9] deals with melanoma cells (SK-MEL-5). Briefly: In vitro cytotoxicity, CellTiter-Glo 96 h, SK-MEL-5. To be noted: Homo sapiens, SK-MEL-5, read-out: Cytotoxic potency as free drug, IC50, SK-MEL-5.
Procedure: as §1, §2
Test [10] relates to renal carcinoma cells (786-O). As to the kind of experiment: In vitro cytotoxicity, CellTiter-Glo 96 h, 786-O. To be noted: Homo sapiens, 786-0, read-out: Cytotoxic potency (IC50 class), 786-O.
Procedure: as §1, §3
Test [11] has as its system B-lymphocyte cancer cells (U266). As to the kind of experiment: In vitro cytotoxicity, CellTiter-Glo 96 h, U266. As to conditions: Homo sapiens, U-266, read-out: Cytotoxic potency as free drug, IC50, U266.

Take `CC[C@@]1(O)C(=O)OCc2c1cc1n(c2=O)Cc2c-1nc1cc3c(cc1c2CNCCN(C)CCO)OCO3` [Compound 5w]: the IC50 in [1] was 1 to 10 nM; in [2] it was 10 to 100 nM; in [3] it was 10 to 100 nM; in [4] it was 10 to 100 nM; in [5] it was 10 to 100 nM; in test [6], 10 to 100 nM. In addition, the IC50 in test [7] fell in the range of 10 to 100 nM; in [8], 100 to 1000 nM; in test [9], 10 to 100 nM; in test [10], 10 to 100 nM; in test [11], 10 to 100 nM.

With `CC[C@@]1(O)C(=O)OCc2c1cc1n(c2=O)Cc2c-1nc1cc3c(cc1c2CN(C)CCNC)OCO3` [Compound 5x], the IC50 in test [1] lay in the range of 10 to 100 nM; in test [2], 100 to 1000 nM; in test [3] it was 10 to 100 nM; in test [4] it was 100 to 1000 nM; in test [5], 10 to 100 nM; in test [6] it was 10 to 100 nM. Besides, the IC50 in test [7] lay within 10 to 100 nM; in test [8], 100 to 1000 nM; in [9], 10 to 100 nM; in test [10], 10 to 100 nM; in test [11], 10 to 100 nM.

As to `CC[C@@]1(O)C(=O)OCc2c1cc1n(c2=O)Cc2c-1nc1cc3c(cc1c2CNCCOCCOCCN)OCO3` [Compound 5y], the IC50 was in the range of 0.1 to 1 nM in test [1]; 10 to 100 nM in [2]; 1 to 10 nM in [3]; 1 to 10 nM in test [4]; 1 to 10 nM in test [5]; 1 to 10 nM in [6]. The IC50 lay within 1 to 10 nM in test [7]; 10 to 100 nM in [8]; 1 to 10 nM in [9]; 1 to 10 nM in test [10]; 1 to 10 nM in test [11].

On to `CC[C@@]1(O)C(=O)OCc2c1cc1n(c2=O)Cc2c-1nc1cc3c(cc1c2CNCCc1ccccc1)OCO3` [Compound 5z], for which the IC50 in test [1] lay in the range of 1 to 10 nM; in [2] it was 10 to 100 nM; in test [3], 1 to 10 nM; in test [4], 10 to 100 nM; in test [5] it was 1 to 10 nM; in test [6], 1 to 10 nM. Moreover, the IC50 was 10 to 100 nM in test [7]; 10 to 100 nM in [8]; 10 to 100 nM in test [9]; 1 to 10 nM in test [10]; 10 to 100 nM in test [11].

As to `CCCc1c2c(nc3cc4c(cc13)OCO4)-c1cc3c(c(=O)n1C2)COC(=O)[C@]3(O)CC` [Compound 6a], the IC50 in test [1] is 0.1 to 1 nM; in test [2], 1 to 10 nM; in test [3] it was 0.1 to 1 nM; in [4] it was 1 to 10 nM; in [5], 0.1 to 1 nM; in test [6], 1 to 10 nM. The IC50 in test [7], in test [8], in test [9], in test [10] and in [11] was 1 to 10 nM in each case.

Consider `CC[C@@]1(O)C(=O)OCc2c1cc1n(c2=O)Cc2c-1nc1cc3c(cc1c2-c1ccccc1)OCO3` [Compound 6d], for which the IC50 in [1] fell in the range of 0.1 to 1 nM; in [2], 1 to 10 nM; in test [3], 0.1 to 1 nM; in [4], 1 to 10 nM; in test [5], 1 to 10 nM; in [6], 1 to 10 nM. Also, the IC50 in [7], in test [8], in test [9], in test [10] and in test [11] was 1 to 10 nM each time.

Take `CCc1c2c(nc3cc4c(cc13)OCO4)-c1cc3c(c(=O)n1C2)COC(=O)[C@]3(O)CC` [Compound 6e]: the IC50 in test [1] lay within 0.1 to 1 nM; in test [2] it was 1 to 10 nM; in test [3] it was 0.1 to 1 nM; in [4], 1 to 10 nM; in [5] it was 0.1 to 1 nM; in [6], 0.1 to 1 nM. The IC50 in test [7] is 1 to 10 nM; in [8] it was 1 to 10 nM; in test [9], 1 to 10 nM; in [10], 0.1 to 1 nM; in test [11], 1 to 10 nM.

As for `CC[C@@]1(O)C(=O)OCc2c1cc1n(c2=O)Cc2c-1nc1cc3c(cc1c2CC(C)C)OCO3` [Compound 6f], the IC50 in [1], in test [2], in test [3], in test [4], in test [5] and in test [6] was 1 to 10 nM each time. For the same compound, the IC50 lay within 1 to 10 nM in [7]; 10 to 100 nM in [8]; 1 to 10 nM in test [9]; 1 to 10 nM in test [10]; 1 to 10 nM in [11].

As for `CCC(CC)Cc1c2c(nc3cc4c(cc13)OCO4)-c1cc3c(c(=O)n1C2)COC(=O)[C@]3(O)CC` [Compound 6g], the IC50 lay within 0.1 to 1 nM in test [1]; 1 to 10 nM in test [2]; 1 to 10 nM in [3]; 1 to 10 nM in [4]; 1 to 10 nM in test [5]; 1 to 10 nM in [6]. In addition, the IC50 lay within 1 to 10 nM in test [7]; 10 to 100 nM in test [8]; 1 to 10 nM in test [9]; 1 to 10 nM in test [10]; 1 to 10 nM in [11].

For `CCCCCc1c2c(nc3cc4c(cc13)OCO4)-c1cc3c(c(=O)n1C2)COC(=O)[C@]3(O)CC` [Compound 6h], the IC50 in test [1] lay in the range of 0.1 to 1 nM; in test [2], 10 to 100 nM; in test [3], 0.1 to 1 nM; in test [4] it was 1 to 10 nM; in test [5] it was 1 to 10 nM; in [6], 1 to 10 nM. In addition, the IC50 in [7] was 10 to 100 nM; in [8], 10 to 100 nM; in test [9] it was 1 to 10 nM; in test [10], 0.1 to 1 nM; in [11], 1 to 10 nM.

Consider `CC[C@@]1(O)C(=O)OCc2c1cc1n(c2=O)Cc2c-1nc1cc3c(cc1c2C1CCCC1)OCO3` [Compound 6i], for which the IC50 in test [1] lay in the range of 0.1 to 1 nM; in test [2], 1 to 10 nM; in test [3] it was 0.1 to 1 nM; in test [4], 1 to 10 nM; in test [5], 1 to 10 nM; in test [6], 1 to 10 nM. The IC50 was 1 to 10 nM in [7]; 10 to 100 nM in test [8]; 1 to 10 nM in test [9]; 1 to 10 nM in test [10]; 1 to 10 nM in test [11].

With `CC[C@@]1(O)C(=O)OCc2c1cc1n(c2=O)Cc2c-1nc1cc3c(cc1c2C1CCCCCC1)OCO3` [Compound 6j], the IC50 was in the range of 0.1 to 1 nM in [1]; 1 to 10 nM in test [2]; 1 to 10 nM in test [3]; 1 to 10 nM in [4]; 1 to 10 nM in [5]; 1 to 10 nM in [6]. The IC50 in [7] was 1 to 10 nM; in [8] it was 10 to 100 nM; in test [9] it was 1 to 10 nM; in test [10] it was 1 to 10 nM; in test [11] it was 1 to 10 nM.

With `CCCCCCc1c2c(nc3cc4c(cc13)OCO4)-c1cc3c(c(=O)n1C2)COC(=O)[C@]3(O)CC` [Compound 6k], the IC50 in [1] was 0.1 to 1 nM; in test [2] it was 10 to 100 nM; in test [3], 1 to 10 nM; in test [4] it was 1 to 10 nM; in test [5], 1 to 10 nM; in test [6], 1 to 10 nM. For the same compound, the IC50 in [7] is 10 to 100 nM; in [8] it was 100 to 1000 nM; in test [9], 1 to 10 nM; in [10] it was 1 to 10 nM; in test [11] it was 1 to 10 nM.

In the case of `CC[C@@]1(O)C(=O)OCc2c1cc1n(c2=O)Cc2c-1nc1cc3c(cc1c2C(C)(C)C)OCO3` [Compound 6l], the IC50 in [1] is 0.1 to 1 nM; in test [2] it was 1 to 10 nM; in [3] it was 1 to 10 nM; in test [4] it was 1 to 10 nM; in test [5] it was 1 to 10 nM; in test [6] it was 1 to 10 nM. Besides, the IC50 in test [7], in test [8], in test [9], in test [10] and in test [11] was 1 to 10 nM throughout.

`CC[C@@]1(O)C(=O)OCc2c1cc1n(c2=O)Cc2c-1nc1cc3c(cc1c2C1CC1)OCO3` [Compound 6m]: the IC50 in test [1] is 0.1 to 1 nM; in test [2] it was 1 to 10 nM; in [3], 0.1 to 1 nM; in test [4], 1 to 10 nM; in test [5] it was 0.1 to 1 nM; in test [6] it was 0.1 to 1 nM. The IC50 in [7] is 1 to 10 nM; in [8], 10 to 100 nM; in test [9] it was 1 to 10 nM; in test [10], 0.1 to 1 nM; in [11], 1 to 10 nM.
